Tests used:
[1] = Comparison in a strawberry drink; settings: 0.5 ppm, 7% sucrose, 0.1% citric acid, strawberry flavour 0.015%
Source text: Comparison in a Strawberry Drink
Base is 7% sucrose, 0.1% citric acid, and a proprietary strawberry flavour @0.015%

[2] = Strawberry flavoured sugar sweetened yoghurt; settings: 2 ppm, 1.5% fat yoghurt base, 8% sucrose, strawberry flavour 0.015%
Source text: Strawberry Flavoured Sugar Sweetened Yoghurt
The base consisted of a 1.5% fat yoghurt base, sweetened with 8% sucrose by weight, flavoured with a proprietary strawberry flavour @ 0.015%.

In the case of `CCCCCCCCCCCCCCCCCC(=O)NCCCC(=O)O` [C18:0-gaba], the taste description [1] is reported as “mild creamy, fruity, juicy and long lasting” and the taste description [2] is reported as “juicy full, jammy”.
